Measurements: US20180161288A1, “TAU AGGREGATION INHIBITOR” (National Center for Geriatrics and Gerontology, priority 2011, published 2018)

How the values were obtained:
[1] = biological target: T1, tau (Homo sapiens, UniProt P10636); assay: sucrose-density gradient centrifugation with SDS-PAGE western blotting of tau; type: biochemical; conditions: for amount of tau (granular and filamentous tau aggregates) fractionated into Fr3 and subsequent fractions: FIG. 11; for amount of tau in fractions Fr3, 4, 5, and 6: compound 100 μM, FIG. 2
[2] = biological target: T1, tau; assay: thioflavine T stain of heparin-induced tau aggregation; type: biochemical; conditions: 10 μM tau
[3] = biological target: T1, tau; assay: quantification of insoluble tau pellet after centrifugation at 250000 xg; type: biochemical; conditions: pellet after 250000 xg for 2 h
Method: For this analysis, 10-μM tau, a compound (1 μM, 10 μM, or 100 μM), and thioflavine T (a beta-pleated sheet structure-specific detection reagent) were mixed together. Thereafter, heparin, which is a tau aggregation inducer, was added to the mixture, and the resulting mixture was incubated at 37° C., thereby allowing tau to aggregate. Subsequently, the thioflavine T activity in an incubation sample was measured at various times to investigate tau aggregation inhibition effects by the compounds.
To further investigate the effects of these nine compounds on tau aggregation specifically, samples that had been incubated at 37° C. were centrifuged at 250000 ×g for 2 h, the resultant pellets were obtained so that the amount of insoluble tau were quantified.

[4] = system: P301L tau Tg mice; assay: sarkosyl-insoluble tau in brains of P301L tau Tg mice; type: in vivo
[5] = biological target: T1, tau; assay: atomic force microscope observation of tau aggregation; type: biochemical; conditions: sample incubated for 120 hours; FIG. 12
Method: Thereafter, to analyze a change of tau aggregation by d-isoprenaline morphologically, the sample was investigated by using an atomic force microscope. A tau aggregation sample that had been incubated for 120 hours was loaded on a mica board and adsorbed thereon. […] FIG. 12A is a photograph of a control, FIG. 12B is a photograph showing effects of d-isoprenaline on a tau aggregation sample, and FIG. 12C is a graph of measured major axes of tau aggregation.

[6] = biological target: T2, human P301L mutant tau (Homo sapiens, UniProt P10636, P618L); assay: SDS-insoluble tau in Neuro2a cells expressing P301L mutant tau; type: cell-based; conditions: Neuro2a cells, 0.01, 0.1 and 1 μM isoprenaline for 48 hours; FIG. 3
T2 construct: expressed in transfected cells

[7] = biological target: T3, WT tau (Homo sapiens, UniProt P10636); assay: tau and acetylated tubulin in microtubule fraction of WT tau-expressing COS-7 cells; type: cell-based, African green monkey; conditions: 10 μM, 24 hours
T3 construct: expressed in transfected cells; host or cells: COS-7 (African green monkey kidney)
Method: The homogenates were then centrifuged at 3000×g for 5 min at 25° C., and thea supernatant was obtained as a total fraction. The total fraction was further centrifuged at 100000×g for 20 min at 20° C., and a pellet (a microtubule fraction) was obtained. In this manner, the microtubule fraction was taken from the COS-7 cells expressing WT tau, and acetylated tubulin serving as an index of tau and microtubule stabilization was detected.

[8] = biological target: T3, WT tau; assay: MC1 dot blotting and AT8 phosphorylation in WT tau-expressing COS-7 cells; type: cell-based, African green monkey
Description: Tau phosphorylations at AT8 sites are known to induce a tau conformational change (that can be detected with the MC1 antibody) observed in AD brains. Thus, WT tau was expressed in COS-7 cells (derived from African green monkey kidney), and a tau conformational change was detected by dot blotting using the MC1 antibody. The dot blotting is a technique of fixing protein to a nitrocellulose membrane or a PVDF membrane without separation through electrophoresis and specifically quantitating the protein amount with enzyme-labeled antibodies.

[9] = biological target: T2, human P301L mutant tau; assay: tau phosphorylation (AT8) in RIPA-soluble fractions of Neuro2a cells; type: cell-based; conditions: RIPA-soluble fraction, FIG. 4
Method: As cells, Neuro2a cell lines in which human P301L mutant tau (i.e., mutant tau in which 301st proline of tau is changed to leucine) is expressed in stable were used. […] Then, SDS-insoluble fractions were obtained so that a change in the amounts of tau was observed.
In addition, changes of tau phosphorylation in radio-immunoprecipitation assay (RIPA) buffer-soluble fractions obtained from similar cells were analyzed. […] The composition of the RIPA buffer was 50 mM Tris-HCl (pH7.4), 150 mM sodium chloride, 0.25 w/v % sodium deoxycholate, 1 mM EGTA, and 1.0 w/v % NP-40 substitute.

[10] = system: WT tau Tg mice; assay: tau dephosphorylation (tau1 antibody) in TBS-soluble fractions from WT tau Tg mice; type: in vivo; conditions: TBS-soluble fraction; FIG. 9
Description: A change in tau phosphorylation in TBS-soluble fractions from WT tau Tg mice was investigated.

T2 sequence (P10636 1-441 isoform P10636-8 P301L): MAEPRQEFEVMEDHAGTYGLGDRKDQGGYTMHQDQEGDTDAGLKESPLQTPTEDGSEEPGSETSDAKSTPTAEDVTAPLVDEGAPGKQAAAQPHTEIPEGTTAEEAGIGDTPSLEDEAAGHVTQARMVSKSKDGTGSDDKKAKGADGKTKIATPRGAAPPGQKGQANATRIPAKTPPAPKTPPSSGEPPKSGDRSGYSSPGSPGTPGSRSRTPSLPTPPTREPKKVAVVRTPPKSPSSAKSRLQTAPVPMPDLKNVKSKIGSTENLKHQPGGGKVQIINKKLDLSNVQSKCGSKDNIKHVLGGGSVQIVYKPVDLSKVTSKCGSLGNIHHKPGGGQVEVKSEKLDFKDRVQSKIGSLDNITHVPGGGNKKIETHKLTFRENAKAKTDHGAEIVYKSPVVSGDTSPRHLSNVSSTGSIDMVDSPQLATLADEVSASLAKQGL
T3 sequence (P10636 1-441 isoform P10636-8): as the sequence (P10636 1-441 isoform P10636-8 P301L) above, with L301P counted along it
T1 sequence (P10636 1-441 isoform P10636-8): as the sequence (P10636 1-441 isoform P10636-8 P301L) above, with L301P counted along it

CC(C)NCC(O)c1ccc(O)c(O)c1 (racemic) [d/l-isoprenaline, mixture of (S)-(+)-isoprenaline and (R)-(−)-isoprenaline]
amount of tau (granular and filamentous tau aggregates) fractionated into Fr3 and subsequent fractions [1]: apparently reduced the amount of tau | thioflavine T activity ([2]; compound 1-100 μM, FIG. 10): inhibition of thioflavine T activity

CNC[C@H](O)c1ccc(O)c(O)c1 [(R)-(−)-epinephrine]
amount of tau in fractions Fr3, 4, 5, and 6 [1]: reduced the amount of tau in fractions Fr3, 4, 5, and 6 | thioflavine T activity ([2]; FIG. 1, heparin, 37° C.): significantly reduced thioflavine T activity | amount of insoluble tau [3]: reduced the amount of insoluble tau in a concentration dependent manner

CC(C)NC[C@@H](O)c1ccc(O)c(O)c1 [d-isoprenaline, (S)-(+)-isoprenaline]
amount of tau (granular and filamentous tau aggregates) fractionated into Fr3 and subsequent fractions [1]: apparently reduced the amount of tau | thioflavine T activity ([2]; compound 1-100 μM, FIG. 10): inhibition of thioflavine T activity similar to that of d/l-isoprenaline | amount of insoluble tau in cerebral cortices ([4]; mice aged 20-21 months, 2.168 mg/g fed in mash for three months, FIGS. 13, 14): apparently reduced the amount of insoluble tau | amount of insoluble tau in hippocampi ([4]; mice aged 20-21 months, 2.168 mg/g fed in mash for three months, FIGS. 15, 16): apparently reduced the amount of insoluble tau | number of tau aggregates having major axes of 20 nm or more [5]: apparently reduced the number of tau aggregates

NCCc1ccc(O)c(O)c1 [dopamine]
thioflavine T activity ([2]; FIG. 1, heparin, 37° C.): significantly reduced thioflavine T activity

CC(C)NCC(O)c1ccc(O)c(O)c1 (centres unmarked) [isoprenaline]
amount of SDS-insoluble tau [6]: reduced the amounts of SDS-insoluble tau | amount of tau in fractions Fr3, 4, 5, and 6 [1]: reduced the amount of tau in fractions Fr3, 4, 5, and 6 | thioflavine T activity ([2]; FIG. 1, heparin, 37° C.): significantly reduced thioflavine T activity | amount of tau in the microtubule fraction ([7]; FIG. 6A-C): increased the amount of tau in the microtubule fraction | amount of acetylated tubulin ([7]; FIG. 6D-F): further increased the amount of acetylated tubulin | tau phosphorylation (AT8 sites) ([8]; FIG. 5C): also reduced phosphorylation | tau conformational change detected with MC1 antibody ([8]; TBS-soluble fraction, FIG. 5A, 5B): reduced the tau conformational change | tau phosphorylation (AT8) [9]: reduced tau phosphorylation | amount of sarkosyl-insoluble tau in the brains ([4]; 1.5 mg/g fed mixed in mash for three months, FIG. 7): reduced the amount of sarkosyl-insoluble tau | dephosphorylation of tau labeled by tau1 antibody [10]: induced dephosphorylation of tau

[Cl-].[Li+] [lithium chloride]
amount of SDS-insoluble tau [6]: reduced the amounts of SDS-insoluble tau

NC[C@H](O)c1ccc(O)c(O)c1 [norepinephrine]
thioflavine T activity ([2]; FIG. 1, heparin, 37° C.): significantly reduced thioflavine T activity
